These results are taken from ChEMBL document CHEMBL1136650, “Glycine alpha-ketoamides as HCV NS3 protease inhibitors” (Bioorg Med Chem Lett, 2003).

Numbered stars: 1 amine (or outer) side, 2 acyl side, 3 side chain; on linkers, the order of the positions; unused ones are H or OH. Square brackets hold non-standard residues; d marks the D form. Peptide text beside a SMILES is read from it. * marks the point of attachment. Abu(ψCOCO) = CC[C@H](N[*:1])C(=O)C(=O)[*:2]; X1 = O=C(C(=O)[*:2])[C@H](CC(F)F)N[*:1]; Pyrazinecarbonyl = O=C(c1cnccn1)*; X2 = CC(C)(N[*:1])C(=O)C(=O)[*:2]; X3 = O=C(C(=O)[*:2])C1(N[*:1])CC1; Cha = N[C@@H](CC1CCCCC1)C(=O)O; Aib = CC(C)(N)C(=O)O; NHAllyl = C=CCN*; Sar = CNCC(=O)O

Broadly, the IC50 is the point on the concentration scale where inhibition reaches its midpoint. The low end stands for higher potency, the high end for lower potency.

This test deals with Genome polyprotein (Hepatitis C virus genotype 1a (isolate 1) (HCV), UniProt P26664). The test can be described thus: Inhibitory concentration against HCV NS3 protease was determined.
Genome polyprotein, sequence (P26664 1027-1657 limits assumed): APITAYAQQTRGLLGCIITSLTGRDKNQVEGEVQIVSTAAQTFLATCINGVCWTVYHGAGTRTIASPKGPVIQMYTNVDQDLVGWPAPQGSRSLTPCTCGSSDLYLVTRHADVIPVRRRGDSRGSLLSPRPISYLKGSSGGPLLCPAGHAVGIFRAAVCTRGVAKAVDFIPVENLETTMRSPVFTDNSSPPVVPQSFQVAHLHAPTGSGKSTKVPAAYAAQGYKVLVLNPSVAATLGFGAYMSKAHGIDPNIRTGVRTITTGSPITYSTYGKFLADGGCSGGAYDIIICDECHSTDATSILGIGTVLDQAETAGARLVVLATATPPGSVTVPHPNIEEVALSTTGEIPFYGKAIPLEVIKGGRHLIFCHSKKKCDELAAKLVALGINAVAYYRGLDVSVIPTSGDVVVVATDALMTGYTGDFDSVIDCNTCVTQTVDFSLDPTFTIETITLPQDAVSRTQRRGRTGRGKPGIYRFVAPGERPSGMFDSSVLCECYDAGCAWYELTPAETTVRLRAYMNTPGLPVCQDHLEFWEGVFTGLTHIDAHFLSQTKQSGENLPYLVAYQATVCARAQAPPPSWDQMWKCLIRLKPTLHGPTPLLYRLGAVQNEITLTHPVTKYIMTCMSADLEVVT
`CC[C@H](NC(=O)[C@H](CC1CCCCC1)NC(=O)[C@@H](NC(=O)[C@H](CC(C)C)NC(=O)c1cnccn1)[C@@H](C)CC)C(=O)C(=O)NC(C)(C)C(=O)O` (Pyrazinecarbonyl-LI[Cha][Abu(ψCOCO)][Aib]-OH): the IC50 is > 60 µM.

Regarding `CC[C@H](NC(=O)[C@H](CC1CCCCC1)NC(=O)[C@@H](NC(=O)[C@H](CC(C)C)NC(=O)c1cnccn1)[C@@H](C)CC)C(=O)C(=O)N[C@@H](CC(=O)O)C(=O)O` (Pyrazinecarbonyl-LI[Cha][Abu(ψCOCO)]D-OH), the half-maximal inhibitory concentration (IC50) was found to be 5.3 µM. To `CC[C@H](NC(=O)[C@H](CC1CCCCC1)NC(=O)[C@@H](NC(=O)[C@H](CC(C)C)NC(=O)c1cnccn1)[C@@H](C)CC)C(=O)C(=O)N[C@@H](CCCCN)C(=O)O` (Pyrazinecarbonyl-LI[Cha][Abu(ψCOCO)]K-OH) belongs 7.7 µM; to `CC[C@H](NC(=O)[C@H](CC1CCCCC1)NC(=O)[C@@H](NC(=O)[C@H](CC(C)C)NC(=O)c1cnccn1)[C@@H](C)CC)C(=O)C(=O)NCCC(=O)O`, 12 µM. As to `CC[C@H](NC(=O)[C@H](CC1CCCCC1)NC(=O)[C@@H](NC(=O)[C@H](CC(C)C)NC(=O)c1cnccn1)[C@@H](C)CC)C(=O)C(=O)NCC(=O)O` (Pyrazinecarbonyl-LI[Cha][Abu(ψCOCO)]G-OH), the IC50 came to 0.23 µM. To `CC[C@H](C)[C@H](NC(=O)[C@H](CC(C)C)NC(=O)c1cnccn1)C(=O)N[C@@H](CC1CCCCC1)C(=O)NC(C)(C)C(=O)C(=O)NCC(=O)O` (Pyrazinecarbonyl-LI[Cha][X2]G-OH) belongs > 60 µM.

In turn, `CC[C@H](NC(=O)[C@H](CC1CCCCC1)NC(=O)[C@@H](NC(=O)[C@H](CC(C)C)NC(=O)c1cnccn1)[C@@H](C)CC)C(=O)C(=O)NC1CC1` yielded an IC50 of 2.2 µM. Take `CC[C@H](NC(=O)[C@H](CC1CCCCC1)NC(=O)[C@@H](NC(=O)[C@H](CC(C)C)NC(=O)c1cnccn1)[C@@H](C)CC)C(=O)C(=O)N1CCCC1`: the IC50 worked out at 42 µM. This IC50 lies about 19-fold higher than the previous one. Molecule `CC[C@H](NC(=O)[C@H](CC1CCCCC1)NC(=O)[C@@H](NC(=O)[C@H](CC(C)C)NC(=O)c1cnccn1)[C@@H](C)CC)C(=O)C(=O)N[C@H](C(=O)O)C(C)C` (Pyrazinecarbonyl-LI[Cha][Abu(ψCOCO)]V-OH) returned a half-maximal inhibitory concentration (IC50) of 3.6 µM. Next, `CC[C@H](NC(=O)[C@H](CC1CCCCC1)NC(=O)[C@@H](NC(=O)[C@H](CC(C)C)NC(=O)c1cnccn1)[C@@H](C)CC)C(=O)C(=O)NCC(N)=O` (Pyrazinecarbonyl-LI[Cha][Abu(ψCOCO)]G-NH2): 4.3 µM.

`C=CCNC(=O)C(=O)[C@H](CC)NC(=O)[C@H](CC1CCCCC1)NC(=O)[C@@H](NC(=O)[C@H](CC(C)C)NC(=O)c1cnccn1)[C@@H](C)CC` showed an IC50 of 2.7 µM. Next, `CC[C@H](NC(=O)[C@H](CC1CCCCC1)NC(=O)[C@@H](NC(=O)[C@H](CC(C)C)NC(=O)c1cnccn1)[C@@H](C)CC)C(=O)C(=O)NCC(=O)OC` (Pyrazinecarbonyl-LI[Cha][Abu(ψCOCO)]G-OMe): 5.8 µM. In the case of `CC[C@H](NC(=O)[C@H](CC1CCCCC1)NC(=O)[C@@H](NC(=O)[C@H](CC(C)C)NC(=O)c1cnccn1)[C@@H](C)CC)C(=O)C(=O)N[C@@H](C)C(=O)O`, half-maximal inhibition (IC50) required 1.3 µM. This IC50 lies about 4.5-fold lower than the previous one. In turn, `C#CCNC(=O)C(=O)[C@H](CC)NC(=O)[C@H](CC1CCCCC1)NC(=O)[C@@H](NC(=O)[C@H](CC(C)C)NC(=O)c1cnccn1)[C@@H](C)CC` yielded a concentration for half-maximal inhibition (IC50) of 1.6 µM. The IC50 values of the last two molecules are within 1.5-fold of each other. As for `CC[C@H](C)[C@H](NC(=O)[C@H](CC(C)C)NC(=O)c1cnccn1)C(=O)N[C@@H](CC1CCCCC1)C(=O)N[C@@H](CC(F)F)C(=O)C(=O)NCC(=O)O` (Pyrazinecarbonyl-LI[Cha][X1]G-OH), the half-inhibitory concentration (IC50) turned out to be 0.06 µM. This IC50 lies about 27-fold lower than the previous one. Regarding `CC[C@H](NC(=O)[C@H](CC1CCCCC1)NC(=O)[C@@H](NC(=O)[C@H](CC(C)C)NC(=O)c1cnccn1)[C@@H](C)CC)C(=O)C(=O)N(C)CC(=O)O` (Pyrazinecarbonyl-LI[Cha][Abu(ψCOCO)][Sar]-OH), the concentration for half-maximal inhibition (IC50) was > 60 µM.

In the case of `CC[C@H](NC(=O)[C@H](CC1CCCCC1)NC(=O)[C@@H](NC(=O)[C@H](CC(C)C)NC(=O)c1cnccn1)[C@@H](C)CC)C(=O)C(=O)N1CCOCC1`, the half-inhibitory concentration (IC50) was > 60 µM. In turn, `CC[C@H](NC(=O)[C@H](CC1CCCCC1)NC(=O)[C@@H](NC(=O)[C@H](CC(C)C)NC(=O)c1cnccn1)[C@@H](C)CC)C(=O)C(=O)NCc1ccccc1` registered an IC50 of 11 µM.

For the molecule `CC[C@H](C)[C@H](NC(=O)[C@H](CC(C)C)NC(=O)c1cnccn1)C(=O)N[C@@H](CC1CCCCC1)C(=O)NC1(C(=O)C(=O)NCC(=O)O)CC1` (Pyrazinecarbonyl-LI[Cha][X3]G-OH), the half-inhibitory concentration (IC50) was > 60 µM. To `CCNC(=O)C(=O)[C@H](CC)NC(=O)[C@H](CC1CCCCC1)NC(=O)[C@@H](NC(=O)[C@H](CC(C)C)NC(=O)c1cnccn1)[C@@H](C)CC` belongs 1.8 µM. As for `CC[C@H](NC(=O)[C@H](CC1CCCCC1)NC(=O)[C@@H](NC(=O)[C@H](CC(C)C)NC(=O)c1cnccn1)[C@@H](C)CC)C(=O)C(=O)N[C@H](C)C(=O)O`, the IC50 was > 60 µM. To `C=CCNC(=O)C(=O)[C@H](CC)NC(=O)[C@@H]1CCCN1C(=O)[C@@H](NC(=O)[C@@H](NC(=O)[C@H](CCC(=O)O)NC(=O)[C@@H](N)CC(=O)O)C(C)C)C(C)C` (H-DEVVP[Abu(ψCOCO)]-NHAllyl) belongs 0.42 µM.
